Source: US9447100B2, “Substituted pyrazolo[1,5-A] pyrimidines as calcium receptor modulating agents” (Takeda Pharmaceutical Company Limited, priority 2002, dated 2016)

Molecular target: T1, human CaR (Homo sapiens, UniProt P41180)
T1 construct: expressed in transfected cells; host or cells: CHO-K1 cells stably transfected with pMSRαneo-CaR (cDNA amplified from human kidney cDNA); membrane fraction used
T1 sequence (P41180 20-1078): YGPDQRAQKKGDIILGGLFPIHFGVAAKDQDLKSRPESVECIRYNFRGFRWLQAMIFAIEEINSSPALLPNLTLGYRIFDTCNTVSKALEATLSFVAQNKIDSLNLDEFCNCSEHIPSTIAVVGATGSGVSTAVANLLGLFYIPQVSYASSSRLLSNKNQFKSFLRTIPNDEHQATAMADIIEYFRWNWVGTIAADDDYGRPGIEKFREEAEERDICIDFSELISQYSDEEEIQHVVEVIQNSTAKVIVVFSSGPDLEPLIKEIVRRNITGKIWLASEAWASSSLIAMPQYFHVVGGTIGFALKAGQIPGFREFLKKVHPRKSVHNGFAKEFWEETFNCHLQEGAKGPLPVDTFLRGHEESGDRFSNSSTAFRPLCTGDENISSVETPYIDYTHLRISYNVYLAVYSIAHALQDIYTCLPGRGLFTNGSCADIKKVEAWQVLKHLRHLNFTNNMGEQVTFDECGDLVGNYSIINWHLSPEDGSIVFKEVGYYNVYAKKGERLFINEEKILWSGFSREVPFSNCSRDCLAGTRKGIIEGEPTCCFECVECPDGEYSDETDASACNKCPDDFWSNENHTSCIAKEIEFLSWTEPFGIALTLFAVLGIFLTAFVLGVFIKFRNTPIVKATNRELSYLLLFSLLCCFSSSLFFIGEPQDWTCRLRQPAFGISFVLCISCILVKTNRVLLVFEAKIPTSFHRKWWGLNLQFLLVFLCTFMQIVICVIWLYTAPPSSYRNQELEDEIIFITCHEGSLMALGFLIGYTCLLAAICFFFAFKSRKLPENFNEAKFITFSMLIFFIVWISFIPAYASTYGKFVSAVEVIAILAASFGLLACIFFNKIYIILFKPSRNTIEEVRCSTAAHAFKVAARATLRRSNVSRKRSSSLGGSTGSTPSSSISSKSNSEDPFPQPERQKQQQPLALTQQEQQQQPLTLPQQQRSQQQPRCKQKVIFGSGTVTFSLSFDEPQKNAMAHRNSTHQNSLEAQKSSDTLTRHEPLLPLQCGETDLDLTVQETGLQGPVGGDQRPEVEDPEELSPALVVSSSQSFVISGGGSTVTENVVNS
Assay: [35S]-GTPγS binding assay in membrane fraction of human CaR-expressing CHO cells
Type: biochemical
Details: test compound 1 μM; relative to binding with 6 mM calcium only (100×(t′−b)/(t−b)); compounds marked antagonist
Protocol: Preparation of membrane fraction is described bellow. The human CaR-expressing CHO cells were inoculated to a F500 flask in 1.8×10^5 cells/flask followed by cultivation for 2 days. The cells were scraped with 10 ml of Phosphate-Buffered Saline containing 0.02% EDTA. After centrifugation (2000 rpm, 10 min) of the cells, the cell pellet was resuspended into 12 ml of homogenate buffer solution (10 mM NaHCO3, 1 mM EDTA, 1× Protease inhibitor cocktail (pH 7.4)) and homogenized by Polytron™ (20000 rpm, 1 min). The cell debris was removed by centrifugation (2000 rpm, 10 min), and then the CaR-expressing cell membrane fraction was collected by ultracentrifugation (Beckman 70 Ti type rotor, 30000 rpm, 1 hour).
The GTPγS binding activity was measured as follows. Twenty μg of the CaR-expressing cell membrane was incubated with test compounds for 10 min. The assays were carried out at room temperature for an hour in a reaction solution mixture containing 20 mM HEPES (pH. 7.4), 100 mM NaCl, 1 mM MgCl2, 167 μg/ml DTT, 5 μM guanosine 5′-diphosphate, 0.4 nM [^35S]-guanosine 5′-(γ-thio)triphosphate ([^35S]-GTPγS) and 6 mM CaCl2. The mixture was filtered through a GF/C filter. After washing fourth with 300 μl of Phosphate-Buffered Saline, the amount of [^35S]-GTPγS bound to the filter was measured using a Top-count scintillation counter.
Effects of test compounds on [^35S]-GTPγS binding were expressed in percentage terms. This was calculated from the equation [100×(t′−b)]/(t−b) where t′, t and b are values of [^35S]-GTPγS binding (dpm), t′ in the presence of 6 mM calcium and the test compound, t in the presence of 6 mM calcium only and b in the absence of both 6 mM calcium and the test compound.

| SMILES | [35S]-GTPγS binding (%) |
| --- | --- |
| CCC(CC)(NC(=O)c1cnn2c1NC(c1ccccc1)CC2C(F)(F)F)c1ccc(C(F)(F)F)cc1 (stereo not drawn) [Example 310, N-(1-ethyl-1-(4-(trifluoromethyl)phenyl)propyl)-5-phenyl-7-(trifluoromethyl)-4,5,6,7-tetrahydropyrazolo[1,5-a]pyrimidine-3-carboxamide] | 0 (1 μM) % |
| Cc1ccc(C(OC2CCN(C(=O)c3cnn4c3NC(c3ccccc3)CC4C(F)(F)F)CC2)c2ccc(C)cc2)cc1 (stereo not drawn) [Example 312, 3-((4-(bis(4-methylphenyl)methoxy)-1-piperidinyl)carbonyl)-5-phenyl-7-(trifluoromethyl)-4,5,6,7-tetrahydropyrazolo[1,5-a]pyrimidine] | 10 (1 μM) % |
| COc1ccc(C(CNC(=O)c2cnn3c2NC(c2ccccc2)CC3C(F)(F)F)c2ccccc2)cc1 (stereo not drawn) [Example 318, N-(2-(4-methoxyphenyl)-2-phenylethyl)-5-phenyl-7-(trifluoromethyl)-4,5,6,7-tetrahydropyrazolo[1,5-a]pyrimidine-3-carboxamide] | 34 (1 μM) % |
| COc1ccc(C(NC(=O)c2cnn3c2NC(c2ccccc2)CC3C)c2ccc(OC)cc2)cc1 (stereo not drawn) [Example 335, N-(bis(4-methoxyphenyl)methyl)-7-methyl-5-phenyl-4,5,6,7-tetrahydropyrazolo[1,5-a]pyrimidine-3-carboxamide] | 0 (1 μM) % |
| CCC(CC)(NC(=O)c1cnn2c1NC(c1ccccc1)CC2(C)C)c1ccc(-c2ccsc2)cc1 (stereo not drawn) [Example 423, N-(1-ethyl-1-(4-(3-thienyl)phenyl)propyl)-7,7-dimethyl-5-phenyl-4,5,6,7-tetrahydropyrazolo[1,5-a]pyrimidine-3-carboxamide] | 0 (1 μM) % |
| CC1(C(F)(F)F)CC(c2ccccc2)Nc2c(C(=O)NC34CC5CC(CC(C5)C3)C4)cnn21 (stereo not drawn) [Example 436, N-(1-adamantyl)-7-methyl-5-phenyl-7-(trifluoromethyl)-4,5,6,7-tetrahydropyrazolo[1,5-a]pyrimidine-3-carboxamide] | 12 (1 μM) % |
